Values joined by “and” are separate entries in the source; they are usually repeats but may differ in a detail not shown here. Identical values can stand only once. Like-named read-outs stand apart in the source and are kept apart here.
Experiments:
CDK2/Cyclin A complex = CDK2/Cyclin A complex (Homo sapiens, UniProt P24941); assay: CDK2/Cyclin A assay; type: biochemical; settings: for CDK2 % inhibition @ 10: at 10 (head μM)
Outline: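 Radiometric assay: 150 nM CDK2/cyclin A (insect-cell CDK2, truncated cyclin A) phosphorylates His-tagged Rb fragment (residues 386-928) with 25 μM ATP plus [32P]ATP, pH 7.4 HEPES, 2% DMSO, 30 °C for 20 min. Filter-captured product counted by phosphorimager; apparent Ki from competitive or tight-binding inhibition fits.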

CDK4/Cyclin D3 complex = target: T1, CDK4/Cyclin D3 complex (Homo sapiens, UniProt P11802); assay: CDK4/Cyclin D assay; type: biochemical; settings: for CDK4 % inhibition @ 10: at 10 (head μM)
T1 construct: made in house; host or cells: insect cells co-infected with baculovirus vectors
Outline: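 Insect-cell-expressed CDK4/cyclin D3 (50 nM) phosphorylating His-tagged Rb fragment (residues 386-928) with 25 μM [^32P]ATP in HEPES pH 7.4, MgCl2, 2% DMSO; 20 min at 30 °C, EDTA stop. Filter-captured 32P by phosphorimager; apparent Ki from competitive or tight-binding inhibition fits.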

CHK1 = target: T2, CHK1 (Homo sapiens, UniProt O14757); assay: CHK1 high-throughput screening; type: biochemical; settings: for % inhibition @ 20 μM: Table 4, repeated entries per example; for inhibition at 20 µM: read-out: % inhibition @ 20 μM, Table 4, repeated entries per example
T2 sequence (O14757 1-476): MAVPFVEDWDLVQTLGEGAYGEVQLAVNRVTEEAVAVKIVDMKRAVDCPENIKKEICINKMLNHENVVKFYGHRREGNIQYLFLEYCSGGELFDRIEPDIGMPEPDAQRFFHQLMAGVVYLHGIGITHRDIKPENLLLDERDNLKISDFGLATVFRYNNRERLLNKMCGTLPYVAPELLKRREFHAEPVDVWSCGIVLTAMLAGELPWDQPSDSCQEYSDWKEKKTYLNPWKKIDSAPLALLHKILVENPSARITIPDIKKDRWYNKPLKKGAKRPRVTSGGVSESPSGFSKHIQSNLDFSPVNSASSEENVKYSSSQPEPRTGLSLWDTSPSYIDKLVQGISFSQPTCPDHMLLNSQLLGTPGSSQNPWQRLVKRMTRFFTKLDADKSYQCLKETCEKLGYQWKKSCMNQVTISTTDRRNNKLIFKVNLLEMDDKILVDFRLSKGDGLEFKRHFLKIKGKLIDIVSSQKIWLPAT

[1] = target: T3, phosphorylated VEGF-R2Δ50 (Homo sapiens, UniProt P35968, DEL940-989/E990V); assay: VEGF-R2 ELISA assay; type: biochemical; settings: * determined with ELISA assay, read-out: FLVK-P Ki
T3 construct: VEGF-R2Δ50 contains residues 806-939 and 990-1171; made in house; host or cells: baculovirus/insect cells
Source text: VEGF-R2 Construct for Assay: This construct determines the ability of a test compound to inhibit tyrosine kinase activity. A construct (VEGF-R2Δ50) of the cytosolic domain of human vascular endothelial growth factor receptor 2 (VEGF-R2) lacking the 50 central residues of the 68 residues of the kinase insert domain was expressed in a baculovirus/insect cell system. Of the 1356 residues of full-length VEGF-R2, VEGF-R2Δ50 contains residues 806-939 and 990-1171, and also one point mutation (E990V) within the kinase insert domain relative to wild-type VEGF-R2. Autophosphorylation of the purified construct was performed by incubation of the enzyme at a concentration of 4 μM in the presence of 3 mM ATP and 40 mM MgCl2 in 100 mM Hepes, pH 7.5, containing 5% glycerol and 5 mM DTT, at 4° C. for 2 h. […] See Parast et al., Biochemistry, 37, 16788-16801 (1998).
Formation of phosphogastrin was monitored using biotinylated gastrin peptide (1-17) as substrate. Biotinylated phosphogastrin was immobilized using streptavidin coated 96-well microtiter plates followed by detection using anti-phosphotyrosine-antibody conjugated to horseradish peroxidase. The activity of horseradish peroxidase was monitored using 2,2′-azino-di-[3-ethylbenzathiazoline sulfonate(6)]diammonium salt (ABTS). Typical assay solutions contained: 2 μM biotinylated gastrin peptide; 5 mM DTT; 20 μM ATP; 26 mM MgCl2; and 2 mM MnCl2 in 200 mM Hepes, pH 7.5. The assay was initiated with 0.8 nM of phosphorylated VEGF-R2Δ50. Horseradish peroxidase activity was assayed using ABTS, 10 mM. The horseradish peroxidase reaction was quenched by addition of acid (H2SO4), followed by absorbance reading at 405 nm. Ki values were determined by measuring enzyme activity in the presence of varying concentrations of test compounds. The data were analyzed using Enzyme Kinetic and Kaleidagraph software.

[2] = target: T4, phosphorylated VEGF-R2Δ50 (FLVK-P) (Homo sapiens, UniProt P35968, DEL940-989/E990V); assay: VEGF-R2 coupled spectrophotometric (FLVK-P) assay; type: biochemical; settings: spectrophotometric assay
T4 construct: VEGF-R2Δ50 contains residues 806-939 and 990-1171; made in house; host or cells: baculovirus/insect cells
Outline: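 Baculovirus-expressed human VEGF-R2Δ50 (residues 806-939/990-1171, E990V) was autophosphorylated with 3 mM ATP, 40 mM MgCl2 for 2 h at 4° C. ADP formation was coupled via PK/LDH to NADH oxidation, read at 340 nm, with 5.1 mM poly(E4Y1), 1 mM ATP, 25 mM MgCl2, Hepes pH 7.5. Ki came from activity across compound concentrations.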

FL-CHK1 = target: T5, FL-CHK1 (Homo sapiens, UniProt O14757); assay: CHK1 assay; type: biochemical; settings: Table 2; at 5 (head μM)
T5 construct: C-terminally His-tagged full-length human CHK1 (FL-CHK1); 6xHis (C); made in house; host or cells: baculovirus/insect cells
T5 sequence (O14757 1-476): T2 sequence (O14757 1-476)
Outline: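 Full-length human CHK1 with C-terminal 6×His tag, made in baculovirus/insect cells, 10 nM, phosphorylating 0.125 mM Syntide-2 with 0.15 mM ATP in 50 mM Tris pH 7.5, 25 mM MgCl2, 400 mM NaCl. PK/LDH-coupled NADH oxidation read at 340 nm. Ki from initial rates over varied compound concentrations.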

[3] = target: T6, unphosphorylated VEGF-R2Δ50 (FLVK) (Homo sapiens, UniProt P35968, DEL940-989/E990V); assay: VEGF-R2 coupled spectrophotometric assay, unphosphorylated enzyme (FLVK); type: biochemical; settings: Table 1
T6 construct: VEGF-R2Δ50 contains residues 806-939 and 990-1171; made in house; host or cells: baculovirus/insect cells
Outline: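 Unphosphorylated VEGF-R2Δ50 (5 to 40 nM) with 20 mM poly(E4Y1), 3 mM ATP, 60 mM MgCl2, 2 mM MnCl2 in 200 mM Hepes pH 7.5. ADP production coupled via PK/LDH to NADH oxidation, read at 340 nm. Ki from activity at varying compound concentrations.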

T3 sequence (P35968 with tags, fused parts or gaps DEL940-989/E990V limits assumed): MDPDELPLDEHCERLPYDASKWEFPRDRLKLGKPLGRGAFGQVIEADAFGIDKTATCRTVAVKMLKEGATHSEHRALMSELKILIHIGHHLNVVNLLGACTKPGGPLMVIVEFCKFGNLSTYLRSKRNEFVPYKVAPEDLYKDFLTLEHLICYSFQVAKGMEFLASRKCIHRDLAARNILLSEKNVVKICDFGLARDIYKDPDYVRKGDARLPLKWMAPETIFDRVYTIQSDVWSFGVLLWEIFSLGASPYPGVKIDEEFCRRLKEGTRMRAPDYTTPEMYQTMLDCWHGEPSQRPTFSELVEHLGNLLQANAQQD
T1 sequence (P11802 whole entry): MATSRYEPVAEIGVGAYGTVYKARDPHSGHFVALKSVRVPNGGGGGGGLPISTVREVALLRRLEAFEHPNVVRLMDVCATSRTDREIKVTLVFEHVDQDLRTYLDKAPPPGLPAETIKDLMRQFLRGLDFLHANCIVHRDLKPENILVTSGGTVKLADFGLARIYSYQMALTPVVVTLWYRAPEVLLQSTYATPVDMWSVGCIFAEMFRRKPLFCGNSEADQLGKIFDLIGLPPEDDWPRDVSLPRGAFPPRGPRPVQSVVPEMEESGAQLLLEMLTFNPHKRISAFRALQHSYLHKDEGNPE
T1 sequence (P30281 whole entry partner): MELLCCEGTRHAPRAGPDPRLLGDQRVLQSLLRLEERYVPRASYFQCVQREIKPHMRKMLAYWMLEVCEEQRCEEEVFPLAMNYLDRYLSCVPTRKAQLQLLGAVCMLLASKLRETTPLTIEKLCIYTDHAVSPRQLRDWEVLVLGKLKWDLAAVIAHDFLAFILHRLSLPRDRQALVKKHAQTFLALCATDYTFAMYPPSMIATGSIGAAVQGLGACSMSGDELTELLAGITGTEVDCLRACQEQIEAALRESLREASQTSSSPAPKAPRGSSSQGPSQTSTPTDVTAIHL
T4 sequence (P35968 with tags, fused parts or gaps DEL940-989/E990V limits assumed): as the sequence (P35968 with tags, fused parts or gaps DEL940-989/E990V limits assumed) above
T6 sequence (P35968 with tags, fused parts or gaps DEL940-989/E990V limits assumed): as above

| Compound | melting point | Ki (CDK2/Cyclin A complex; Table 2) | Ki (CDK4/Cyclin D3 complex; Table 2) | % inhibition @ 20 μM (CHK1) | Ki ([1]; Table 2) | other results |
| --- | --- | --- | --- | --- | --- | --- |
| COc1ccc(-c2csc(-c3sc(Nc4ccc(S(N)(=O)=O)cc4)nc3N)n2)cc1 [A(2), 4-[4′-Amino-4-(4-methoxy-phenyl)-[2,5′]bithiazolyl-2′-ylamino]-benzenesulfonamide] | 195 to 198 °C | 1800 nM | 7.3 µM | 2.6% and 7.6% | 2900 nM |  |
| Cc1c(F)cc(-c2csc(-c3sc(Nc4ccc(S(N)(=O)=O)cc4)nc3N)n2)cc1Cl [A(7), 4-[4′-Amino-4-(3-chloro-5-fluoro-4-methyl-phenyl)-[2,5′]bithiazolyl-2′-ylamino]-benzenesulfonamide] | 208 to 212 °C |  |  |  |  | CDK2 % inhibition @ 10 (CDK2/Cyclin A complex; Table 2): 25% @; CDK4 % inhibition @ 10 (CDK4/Cyclin D3 complex; Table 2): 28% @ |
| Nc1nc(Nc2ccc(S(N)(=O)=O)cc2)sc1-c1nc(-c2ccccc2)cs1 [A(1), 4-(4′-Amino-4-phenyl-[2,5′]bithiazolyl-2′-ylamino)-benzenesulfonamide] | 233 to 235 °C (dec.) |  | 4.6 µM | 49.8% | 1400 nM | inhibition at 20 µM (CHK1): 36.6% |
| Nc1nc(Nc2ccc(S(N)(=O)=O)cc2)sc1-c1nc(-c2ccc(F)cc2F)cs1 [A(4), 4-[4′-Amino-4-(2,4-difluoro-phenyl)-[2,5′]bithiazolyl-2′-ylamino]-benzenesulfonamide] | 233 to 238 °C |  |  |  |  | CDK2 % inhibition @ 10 (CDK2/Cyclin A complex; Table 2): 57% @; CDK4 % inhibition @ 10 (CDK4/Cyclin D3 complex; Table 2): 42% @ |
| Nc1nc(Nc2ccc(S(N)(=O)=O)cc2)sc1-c1nc(-c2ccc(Cl)cc2Cl)cs1 [A(6), 4-[4′-Amino-4-(2,4-dichloro-phenyl)-[2,5′]bithiazolyl-2′-ylamino]-benzenesulfonamide] | 173 to 175 °C (dec.) |  |  |  |  | CDK2 % inhibition @ 10 (CDK2/Cyclin A complex; Table 2): 36% @; CDK4 % inhibition @ 10 (CDK4/Cyclin D3 complex; Table 2): 54% @ |
| Nc1nc(Nc2ccc(S(N)(=O)=O)cc2)sc1-c1nc(-c2ccc(F)cc2)cs1 [A(5), 4-[4′-Amino-4-(4-fluoro-phenyl)-[2,5′]bithiazolyl-2′-ylamino]-benzenesulfonamide] | 254 to 257 °C |  |  |  |  | CDK2 % inhibition @ 10 (CDK2/Cyclin A complex; Table 2): 27% @; CDK4 % inhibition @ 10 (CDK4/Cyclin D3 complex; Table 2): 30% @ |
| Nc1nc(Nc2ccc(S(N)(=O)=O)cc2)sc1-c1nc(-c2cccc(O)c2)cs1 [A(16), 4-[4′-Amino-4-(3-hydroxy-phenyl)-[2,5′]bithiazolyl-2′-ylamino]-benzenesulfonamide] | 205 to 209 °C (dec.) | 220 nM | 0.98 µM |  | 22 nM | inhibition at 20 µM (CHK1): 35.4% |
| Cc1sc(-c2sc(Nc3ccc(S(N)(=O)=O)cc3)nc2N)nc1-c1ccc(F)cc1 [A(14), 4-[4′-Amino-4-(4-fluoro-phenyl)-5-methyl-[2,5′]bithiazolyl-2′-ylamino]-benzenesulfonamide] | 145 to 148 °C (dec.) | 3100 nM | 7 µM |  | 1900 nM |  |

The next lines start with results.

| melting point | Ki (CDK2/Cyclin A complex; Table 2) | Ki (CDK4/Cyclin D3 complex; Table 2) | % inhibition @ 20 μM (CHK1) | Ki ([1]; Table 2) | Compound | other results |
| --- | --- | --- | --- | --- | --- | --- |
| 140 to 143 °C (dec.) | 2000 nM | 20 µM | 3.8% and 5.4% and 9.8% |  | Nc1nc(Nc2ccc(S(N)(=O)=O)cc2)sc1-c1nc(/C=C/c2ccccc2)cs1 [A(63), 4-(4′-Amino-4-styryl-[2,5′]bithiazolyl-2′-ylamino)-benzenesulfonamide] |  |
| 205 to 210 °C (dec.) |  |  |  |  | COc1cc(Nc2nc(N)c(-c3nc(-c4cccc(N)c4)cs3)s2)cc(OC)c1OC [C(1)] | Ki ([1]; Table 1): 300 nM |
| 235 to 238 °C |  |  |  |  | COc1cc(Nc2nc(N)c(-c3nc(-c4ccc(Cl)c(O)c4)cs3)s2)cc(OC)c1OC [A(22), 5-[4′-Amino-2′-(3,4,5-trimethoxy-phenylamino)-[2,5′]bithiazolyl-4-yl]-2-chloro-phenol] | Ki ([2]; Table 2): 21 nM; CHK-1 % inhibition @ 5 (FL-CHK1): 54% @; inhibition at 20 µM (CHK1): 7.5% |
| 225 to 230 °C (dec.) | 13000 nM | 24 µM | 9.3% and 0.4% | 131000 nM | Nc1nc(Nc2ccc(S(N)(=O)=O)cc2)sc1-c1nc(-c2cc(-c3ccc(Cl)cc3Cl)co2)cs1 [A(28), 4-{4′-Amino-4-[4-(2,4-dichloro-phenyl)-furan-2-yl]-[2,5′]bithiazolyl-2′-ylamino}-benzenesulfonamide] |  |
| 159 to 163 °C (dec.) |  |  |  |  | Nc1nc(N)c(-c2nc(-c3cccc(NC(=O)c4ccccc4)c3)cs2)s1 [E(2), N-[3-(2 ′,4′-Diamino-[2,5′]bithiazolyl-4-yl)-phenyl]benzamide] | Ki ([2]; Table 1): 390 nM; Ki [3]: 38 nM |
| 138 to 140 °C (dec.) | 520 nM |  | 1.1% and 7.2% and 8.3% |  | Nc1nc(Nc2ccc(S(N)(=O)=O)cc2)sc1-c1nc(/C=C/c2ccc(O)cc2)cs1 [A(64), 4-{4′-Amino-4-[2-(4-hydroxy-phenyl)-vinyl]-[2,5′]bithiazolyl-2′-ylamino}-benzenesulfonamide] |  |
| 195 to 198 °C |  |  |  |  | CON(C)C(=O)c1csc(-c2sc(Nc3ccc(S(N)(=O)=O)cc3)nc2N)n1 [N(3), 4′-Amino-2′-(4-sulfamoyl-phenylamino)-[2,5′]bithiazolyl-4-carboxylic acid methoxy-methyl-amide] | Ki (CDK2/Cyclin A complex; Table 3): 100 nM; Ki (CDK4/Cyclin D3 complex; Table 3): 1.1 µM |
